# Measured values reported in patent publication US10294202B2, “Pyrrolidinones as herbicides” (FMC Corporation, priority 2013, dated 2019).
# How the values were obtained:
# Test in all cases: Test D pre-/postemergence herbicide test
# chickweed = format: in vivo, Stellaria media; conditions: for Plant response rating: Chickweed, scale 0 to 100; for Plant response rating, Chickweed: scale 0 to 100 (0 no effect, 100 complete control)
# Description: (§1) Seeds of plant species selected from bluegrass (annual bluegrass, Poa annua), blackgrass (Alopecurus myosuroides), canarygrass (littleseed canarygrass, Phalaris minor), chickweed (common chickweed, Stellaria media), galium (catchweed bedstraw, Galium aparine), bromegrass, downy (downy bromegrass, Bromus tectorum), field poppy (Papaver rhoeas), field violet (Viola arvensis), foxtail, green (green foxtail, Setaria viridis), deadnettle (henbit deadnettle, Lamium amplexicaule), ryegrass, Italian (Italian ryegrass, Lolium multiflorum), kochia (Kochia scoparia), lambsquarters (Chenopodium album), oilseed rape (Brassica napus), pigweed (Amaranthus retroflexus), chamomile (scentless chamomile, Matricaria inodora), Russian thistle (Salsola kali), speedwell (bird's-eye speedwell, Veronica persica), barley, spring (spring barley, Hordeum vulgare), wheat, spring (spring wheat, Triticum aestivum), buckwheat, wild (wild buckwheat, Polygonum convolvulus), mustard, wild (wild mustard, Sinapis arvensis), oat, wild (wild oat, Avena fatua), radish, wild (wild radish, Raphanus raphanistrum), […]), barley, winter (winter barley, Hordeum vulgare), and wheat, winter (winter wheat, Triticum aestivum) were planted into a silt loam soil and treated preemergence with test chemicals formulated in a non-phytotoxic solvent mixture which included a surfactant. At the same time, these species were planted in pots containing Redi-Earth® planting medium (Scotts Company, 14111 Scottslawn Road, Marysville, Ohio 43041) comprising spaghnum peat moss, vermiculite, wetting agent and starter nutrients and treated with postemergence applications of the test chemicals formulated in the same manner. Plants ranged in height from 2 to 18 cm (1- to 4-leaf stage). Treated plants and controls were maintained in a controlled growth environment for 7 to 21 days after which time all species were compared to controls and visually evaluated. Plant response ratings, summarized in Table D, are based on a scale of 0 to 100 where 0 is no effect and 100 is complete control. A dash (-) response means no test result.
# bromegrass, downy = format: in vivo, Bromus tectorum; conditions: for Plant response rating: Bromegrass, Downy, scale 0 to 100; for Plant response rating, Bromegrass, Downy: scale 0 to 100 (0 no effect, 100 complete control)
# Description: as §1
# lambsquarters = format: in vivo, Chenopodium album; conditions: for Plant response rating: Lambsquarters, scale 0 to 100; for Plant response rating, Lambsquarters: scale 0 to 100 (0 no effect, 100 complete control)
# Description: as §1
# chamomile = format: in vivo, Matricaria inodora; conditions: for Plant response rating: Chamomile, scale 0 to 100; for Plant response rating, Chamomile: scale 0 to 100 (0 no effect, 100 complete control)
# Description: as §1
# buckwheat, wild = format: in vivo, Polygonum convolvulus; conditions: for Plant response rating: Buckwheat, Wild, scale 0 to 100; for Plant response rating, Buckwheat, Wild: scale 0 to 100 (0 no effect, 100 complete control)
# Description: as §1
# oat, wild = format: in vivo, Avena fatua; conditions: for Plant response rating: Postemergence, Oat, Wild, scale 0 to 100; for Plant response rating, Oat, Wild: Preemergence, scale 0 to 100 (0 no effect, 100 complete control)
# Description: as §1
smiles,measurement,setting,value
O=C1NCC(c2ccc(F)c(F)c2)C1C(=O)Nc1ccccc1C(F)(F)F (racemic) [Compound 6],Plant response rating,"chickweed; Postemergence, 16 g ai/ha",0
same,Plant response rating,"chickweed; Postemergence, 31 g ai/ha",0
same,Plant response rating,"chickweed; Postemergence, 62 g ai/ha",0
same,Plant response rating,"chickweed; Postemergence, 125 g ai/ha",10
same,Plant response rating,"chickweed; Postemergence, 250 g ai/ha",30
same,Plant response rating,"bromegrass, downy; Postemergence, 16 g ai/ha",0
same,Plant response rating,"bromegrass, downy; Postemergence, 31 g ai/ha",0
same,Plant response rating,"bromegrass, downy; Postemergence, 62 g ai/ha",0
same,Plant response rating,"bromegrass, downy; Postemergence, 125 g ai/ha",0
same,Plant response rating,"bromegrass, downy; Postemergence, 250 g ai/ha",0
same,"Plant response rating, Bromegrass, Downy","bromegrass, downy; Preemergence, 62 g ai/ha",0
same,"Plant response rating, Bromegrass, Downy","bromegrass, downy; Preemergence, 16 g ai/ha",0
same,"Plant response rating, Bromegrass, Downy","bromegrass, downy; Preemergence, 31 g ai/ha",0
same,Plant response rating,"bromegrass, downy; Preemergence, 125 g ai/ha",0
same,Plant response rating,"bromegrass, downy; Preemergence, 250 g ai/ha",10
same,Plant response rating,"lambsquarters; Postemergence, 16 g ai/ha",0
same,Plant response rating,"lambsquarters; Postemergence, 31 g ai/ha",10
same,Plant response rating,"lambsquarters; Postemergence, 62 g ai/ha",20
same,Plant response rating,"lambsquarters; Postemergence, 125 g ai/ha",20
same,Plant response rating,"lambsquarters; Postemergence, 250 g ai/ha",30
same,"Plant response rating, Lambsquarters","lambsquarters; Preemergence, 62 g ai/ha",0
same,"Plant response rating, Lambsquarters","lambsquarters; Preemergence, 16 g ai/ha",0
same,"Plant response rating, Lambsquarters","lambsquarters; Preemergence, 31 g ai/ha",0
same,Plant response rating,"lambsquarters; Preemergence, 125 g ai/ha",0
same,Plant response rating,"lambsquarters; Preemergence, 250 g ai/ha",0
same,Plant response rating,"chamomile; Postemergence, 16 g ai/ha",0
same,Plant response rating,"chamomile; Postemergence, 31 g ai/ha",0
same,Plant response rating,"chamomile; Postemergence, 62 g ai/ha",0
same,Plant response rating,"chamomile; Postemergence, 125 g ai/ha",0
same,Plant response rating,"chamomile; Postemergence, 250 g ai/ha",0
same,"Plant response rating, Chamomile","chamomile; Preemergence, 62 g ai/ha",30
same,"Plant response rating, Chamomile","chamomile; Preemergence, 16 g ai/ha",0
same,"Plant response rating, Chamomile","chamomile; Preemergence, 31 g ai/ha",0
same,Plant response rating,"chamomile; Preemergence, 125 g ai/ha",70
same,Plant response rating,"chamomile; Preemergence, 250 g ai/ha",90
same,Plant response rating,"buckwheat, wild; Postemergence, 16 g ai/ha",0
same,Plant response rating,"buckwheat, wild; Postemergence, 31 g ai/ha",0
same,Plant response rating,"buckwheat, wild; Postemergence, 62 g ai/ha",0
same,Plant response rating,"buckwheat, wild; Postemergence, 125 g ai/ha",0
same,Plant response rating,"buckwheat, wild; Postemergence, 250 g ai/ha",10
same,"Plant response rating, Buckwheat, Wild","buckwheat, wild; Preemergence, 62 g ai/ha",0
same,"Plant response rating, Buckwheat, Wild","buckwheat, wild; Preemergence, 16 g ai/ha",0
same,"Plant response rating, Buckwheat, Wild","buckwheat, wild; Preemergence, 31 g ai/ha",0
same,Plant response rating,"buckwheat, wild; Preemergence, 125 g ai/ha",0
same,Plant response rating,"buckwheat, wild; Preemergence, 250 g ai/ha",0
same,Plant response rating,"oat, wild; 16 g ai/ha",0
same,Plant response rating,"oat, wild; 31 g ai/ha",0
same,Plant response rating,"oat, wild; 62 g ai/ha",0
same,Plant response rating,"oat, wild; 125 g ai/ha",0
same,Plant response rating,"oat, wild; 250 g ai/ha",5
same,"Plant response rating, Oat, Wild","oat, wild; 62 g ai/ha",0
same,"Plant response rating, Oat, Wild","oat, wild; 125 g ai/ha",0
same,"Plant response rating, Oat, Wild","oat, wild; 16 g ai/ha",0
same,"Plant response rating, Oat, Wild","oat, wild; 31 g ai/ha",0
same,"Plant response rating, Oat, Wild","oat, wild; 250 g ai/ha",0
O=C1NCC(c2ccc(F)c(C(F)(F)F)c2)C1C(=O)Nc1cccc(F)c1F (racemic) [Compound 77],"Plant response rating, Chickweed","chickweed; Preemergence, 62 g ai/ha",90
same,"Plant response rating, Chickweed","chickweed; Preemergence, 31 g ai/ha",75
same,Plant response rating,"chickweed; Preemergence, 125 g ai/ha",100
same,Plant response rating,"chickweed; Preemergence, 250 g ai/ha",100
same,"Plant response rating, Bromegrass, Downy","bromegrass, downy; Preemergence, 62 g ai/ha",0
same,"Plant response rating, Bromegrass, Downy","bromegrass, downy; Preemergence, 31 g ai/ha",0
same,Plant response rating,"bromegrass, downy; Preemergence, 125 g ai/ha",10
same,Plant response rating,"bromegrass, downy; Preemergence, 250 g ai/ha",25
same,"Plant response rating, Lambsquarters","lambsquarters; Preemergence, 62 g ai/ha",85
same,"Plant response rating, Lambsquarters","lambsquarters; Preemergence, 31 g ai/ha",85
same,Plant response rating,"lambsquarters; Preemergence, 125 g ai/ha",90
same,Plant response rating,"lambsquarters; Preemergence, 250 g ai/ha",90
same,"Plant response rating, Buckwheat, Wild","buckwheat, wild; Preemergence, 62 g ai/ha",75
same,"Plant response rating, Buckwheat, Wild","buckwheat, wild; Preemergence, 31 g ai/ha",0
same,Plant response rating,"buckwheat, wild; Preemergence, 125 g ai/ha",55
same,Plant response rating,"buckwheat, wild; Preemergence, 250 g ai/ha",55
same,"Plant response rating, Oat, Wild","oat, wild; 62 g ai/ha",15
same,"Plant response rating, Oat, Wild","oat, wild; 125 g ai/ha",20
same,"Plant response rating, Oat, Wild","oat, wild; 31 g ai/ha",10
same,"Plant response rating, Oat, Wild","oat, wild; 250 g ai/ha",45
O=C1NCC(c2cc(F)c(F)cc2F)C1C(=O)Nc1cccc(F)c1F (centres unmarked) [Compound 50],Plant response rating,"chickweed; Postemergence, 16 g ai/ha",10
same,Plant response rating,"chickweed; Postemergence, 31 g ai/ha",15
same,Plant response rating,"chickweed; Postemergence, 62 g ai/ha",20
same,Plant response rating,"chickweed; Postemergence, 125 g ai/ha",15
same,"Plant response rating, Chickweed","chickweed; Preemergence, 62 g ai/ha",0
same,"Plant response rating, Chickweed","chickweed; Preemergence, 16 g ai/ha",0
same,"Plant response rating, Chickweed","chickweed; Preemergence, 31 g ai/ha",0
same,Plant response rating,"chickweed; Preemergence, 125 g ai/ha",0
same,Plant response rating,"bromegrass, downy; Postemergence, 16 g ai/ha",0
same,Plant response rating,"bromegrass, downy; Postemergence, 31 g ai/ha",0
same,Plant response rating,"bromegrass, downy; Postemergence, 62 g ai/ha",0
same,Plant response rating,"bromegrass, downy; Postemergence, 125 g ai/ha",0
same,"Plant response rating, Bromegrass, Downy","bromegrass, downy; Preemergence, 62 g ai/ha",0
same,"Plant response rating, Bromegrass, Downy","bromegrass, downy; Preemergence, 16 g ai/ha",0
same,"Plant response rating, Bromegrass, Downy","bromegrass, downy; Preemergence, 31 g ai/ha",0
same,Plant response rating,"bromegrass, downy; Preemergence, 125 g ai/ha",0
same,Plant response rating,"lambsquarters; Postemergence, 16 g ai/ha",5
same,Plant response rating,"lambsquarters; Postemergence, 31 g ai/ha",5
same,Plant response rating,"lambsquarters; Postemergence, 62 g ai/ha",5
same,Plant response rating,"lambsquarters; Postemergence, 125 g ai/ha",20
same,"Plant response rating, Lambsquarters","lambsquarters; Preemergence, 62 g ai/ha",0
same,"Plant response rating, Lambsquarters","lambsquarters; Preemergence, 16 g ai/ha",0
same,"Plant response rating, Lambsquarters","lambsquarters; Preemergence, 31 g ai/ha",0
same,Plant response rating,"lambsquarters; Preemergence, 125 g ai/ha",0
same,Plant response rating,"chamomile; Postemergence, 16 g ai/ha",0
same,Plant response rating,"chamomile; Postemergence, 31 g ai/ha",0
same,Plant response rating,"chamomile; Postemergence, 62 g ai/ha",0
same,Plant response rating,"chamomile; Postemergence, 125 g ai/ha",0
same,"Plant response rating, Chamomile","chamomile; Preemergence, 62 g ai/ha",0
same,"Plant response rating, Chamomile","chamomile; Preemergence, 16 g ai/ha",0
same,"Plant response rating, Chamomile","chamomile; Preemergence, 31 g ai/ha",0
same,Plant response rating,"chamomile; Preemergence, 125 g ai/ha",5
same,Plant response rating,"buckwheat, wild; Postemergence, 16 g ai/ha",10
same,Plant response rating,"buckwheat, wild; Postemergence, 31 g ai/ha",10
same,Plant response rating,"buckwheat, wild; Postemergence, 62 g ai/ha",10
same,Plant response rating,"buckwheat, wild; Postemergence, 125 g ai/ha",10
same,"Plant response rating, Buckwheat, Wild","buckwheat, wild; Preemergence, 62 g ai/ha",0
same,"Plant response rating, Buckwheat, Wild","buckwheat, wild; Preemergence, 16 g ai/ha",0
same,"Plant response rating, Buckwheat, Wild","buckwheat, wild; Preemergence, 31 g ai/ha",0
same,Plant response rating,"oat, wild; 16 g ai/ha",0
same,Plant response rating,"oat, wild; 31 g ai/ha",0
same,Plant response rating,"oat, wild; 62 g ai/ha",0
same,Plant response rating,"oat, wild; 125 g ai/ha",0
same,"Plant response rating, Oat, Wild","oat, wild; 62 g ai/ha",0
same,"Plant response rating, Oat, Wild","oat, wild; 125 g ai/ha",0
same,"Plant response rating, Oat, Wild","oat, wild; 16 g ai/ha",0
same,"Plant response rating, Oat, Wild","oat, wild; 31 g ai/ha",0
